The values below come from US20240425479A1, “HALO-SUBSTITUTED AMINO AZA-HETEROARYL COMPOUNDS AS INHIBITORS OF THE HAEMATOPOIETIC PROGENITOR KINASE 1 (HPK1)” (priority 2021, published 2024).

The assay has as its target T1, Recombinant (1-346) HPK1 (h) (Homo sapiens, UniProt Q92918).
T1 construct: Recombinant (1-346) HPK1 (h) is incubated with 8 mM MOPS pH 7.0
T1 sequence (Q92918 1-346): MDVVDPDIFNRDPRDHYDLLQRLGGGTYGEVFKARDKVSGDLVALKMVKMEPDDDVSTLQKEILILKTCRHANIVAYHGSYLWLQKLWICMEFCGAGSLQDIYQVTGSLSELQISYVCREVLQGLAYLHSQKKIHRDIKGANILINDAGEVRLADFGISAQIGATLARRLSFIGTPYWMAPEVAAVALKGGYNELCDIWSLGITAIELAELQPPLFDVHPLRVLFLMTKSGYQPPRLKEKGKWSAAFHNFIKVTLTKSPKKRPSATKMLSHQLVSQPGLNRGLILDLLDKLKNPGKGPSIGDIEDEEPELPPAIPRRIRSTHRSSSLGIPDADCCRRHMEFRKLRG
Description: HPK1 human STE kinase enzymatic radiometric assay. In kind it is biochemical. Conditions: read-out: HPK1 IC50 nM Range. Summed up:
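Recombinant HPK1 (1-346) incubated 40 min at RT with 0.33 mg/mL myelin basic protein and [gamma-33P]-ATP in 8 mM MOPS pH 7.0, 0.2 mM EDTA, 10 mM Mg acetate; reaction started with Mg/ATP. Stopped with 0.5% phosphoric acid, spotted on P30 filtermat, washed, scintillation counted. Compounds tested as 9-point 3-fold dilutions.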
The term IC50 denotes the concentration needed to halve the response being measured. With `CCN1CCN(c2ccc(-c3nc(-c4cc5c(cc4F)C(=O)NCC5)c(N)nc3F)cc2)CC1` [Example I-56, 6-(3-amino-6-(4-(4-ethylpiperazin-1-yl)phenyl)-5-fluoropyrazin-2-yl)-7-fluoro-3,4-dihydroisoquinolin-1(2H)-one], the IC50 was 0.1 to 10 nM.
The figure for `Nc1nc(F)c(-c2ccc(N3CCN(CCCC(F)F)CC3)cc2)nc1-c1ccc2c(=O)[nH]cc(F)c2c1` [Example I-136, 6-(3-amino-6-(4-(4-(4,4-difluorobutyl)piperazin-1-yl)phenyl)-5-fluoropyrazin-2-yl)-4-fluoroisoquinolin-1(2H)-one] is 0.1 to 10 nM.
The figure for `Cc1[nH]c(=O)c2ccc(-c3nc(-c4ccc(C5CCOCC5)c(CN(C)C)c4)c(F)nc3N)cc2c1Cl` [Example I-125, 6-(3-amino-6-(3-((dimethylamino)methyl)-4-(tetrahydro-2H-pyran-4-yl)phenyl)-5-fluoropyrazin-2-yl)-4-chloro-3-methylisoquinolin-1(2H)-one] is 0.1 to 10 nM.
The figure for `CN(C)[C@@H]1COc2ccc(-c3nc(-c4ccc5c(c4)C(F)(F)CNC5=O)c(N)nc3F)cc21` [Example I-256, (S)-6-(3-amino-6-(3-(dimethylamino)-2,3-dihydrobenzofuran-5-yl)-5-fluoropyrazin-2-yl)-4,4-difluoro-3,4-dihydroisoquinolin-1(2H)-one] is 0.1 to 10 nM.
On to `CN1CC2(CCN(c3ccc(-c4nc(-c5cc6c(cc5F)C(=O)NCC6)c(N)nc4F)cc3)CC2)C1` [Example I-61, 6-(3-amino-5-fluoro-6-(4-(2-methyl-2,7-diazaspiro[3.5]nonan-7-yl)phenyl)pyrazin-2-yl)-7-fluoro-3,4-dihydroisoquinolin-1(2H)-one], for which the IC50 is 0.1 to 10 nM.
Next, `COc1c[nH]c(=O)c2ccc(-c3nc(-c4ccc(N5CCN(C(C)C)CC5)cc4)c(F)nc3N)cc12` [Example I-119, 6-(3-amino-5-fluoro-6-(4-(4-isopropylpiperazin-1-yl)phenyl)pyrazin-2-yl)-4-methoxyisoquinolin-1(2H)-one]: 11 to 100 nM.
Next, `Cc1c[nH]c(=O)c2ccc(-c3nc(-c4ccc(N5CCN(C6CCC6)CC5)cc4)c(F)nc3N)cc12` [Example I-139, 6-(3-amino-6-(4-(4-cyclobutylpiperazin-1-yl)phenyl)-5-fluoropyrazin-2-yl)-4-methylisoquinolin-1(2H)-one]: 0.1 to 10 nM; `Cc1[nH]c(=O)c2ccc(-c3nc(-c4ccc(N5CCOCC5)c(CN(C)C)c4)c(F)nc3N)cc2c1F` [Example I-101, 6-(3-amino-6-(3-((dimethylamino)methyl)-4-morpholinophenyl)-5-fluoropyrazin-2-yl)-4-fluoro-3-methylisoquinolin-1(2H)-one]: 0.1 to 10 nM; `COC1CCN(Cc2cc(-c3nc(-c4ccc5c(c4)CCNC5=O)c(N)nc3F)ccc2N2CCOCC2)CC1` [Example I-138, 6-(3-amino-5-fluoro-6-(3-((4-methoxypiperidin-1-yl)methyl)-4-morpholinophenyl)pyrazin-2-yl)-3,4-dihydroisoquinolin-1(2H)-one]: 11 to 100 nM.
Turning to `COCCN(C)Cc1cc(-c2nc(-c3ccc4c(c3)CCNC4=O)c(N)nc2F)ccc1N1CCOCC1` [Example I-160, 6-(3-amino-5-fluoro-6-(3-(((2-methoxyethyl)(methyl)amino)methyl)-4-morpholinophenyl)pyrazin-2-yl)-3,4-dihydroisoquinolin-1(2H)-one], the IC50 was 0.1 to 10 nM.
The figure for `CN(C)Cc1cc(-c2nc(-c3ccc4c(=O)[nH]cc(F)c4c3)c(N)nc2F)cc(F)c1N1CCOCC1` [Example I-265, 6-(3-amino-6-(3-((dimethylamino)methyl)-5-fluoro-4-morpholinophenyl)-5-fluoropyrazin-2-yl)-4-fluoroisoquinolin-1(2H)-one] is 0.1 to 10 nM; for `Cc1nc2cc(-c3nc(-c4ccc(N5CC6(CN(C)CCO6)C5)cc4)c(F)nc3N)ccc2c(=O)[nH]1` [Example I-130, 7-(3-amino-5-fluoro-6-(4-(8-methyl-5-oxa-2,8-diazaspiro[3.5]nonan-2-yl)phenyl)pyrazin-2-yl)-2-methylquinazolin-4(3H)-one] it is 101 to 1000 nM.
